From patent US20240101573A1, “MACROCYCLIC K-RAS G12C INHIBITOR, PREPARATION METHOD THEREFOR AND USE THEREOF” (Abbisko Therapeutics Co., Ltd., priority 2020, published 2024) come the findings set out here.

Assay [1] relates to H358. The assay can be described thus: Anti-proliferation 2D CTG test (H358). The format is cell-based. Particulars: H358 cells, 1500 cells/well, 5 days incubation with compound, CTG readout. On the procedure:
(§1) When the cell confluency was 80%, the cells were isolated with 0.25% trypsin. The isolated cells were resuspended in 5 mL of fresh cell culture medium and centrifuged to collect the cells. The number of cells were counted at the same time. Then, the cells were suspended in a culture medium at a moderate concentration. The cells were placed into a 96-well plate with 1500 cells/well for H358 and 500 cells/well for MIAPACA-2. The 96-well plate was placed in an incubator at 37° C. and incubated overnight.
(§2) 2) Day 1: processing of compound
(§3) A 2 mM stock solution was serially diluted at 10 points at a ratio of 1:3. 5× culture medium containing the compound was transferred to the corresponding wells of 96 wells. The final peak concentration of the compound was […], and the final concentration of DMSO was 0.5%. The 96-well plate was placed in the incubator at 37° C. and incubated for 5 days.
(§4) 3) Baseline reading. 4) Day 6: reading of signals
(§5) A detection reagent (CTG) was added at 50 μL/well, and the signals were read in an Envision instrument.
(§6) The percentage of inhibition ([…]) at each compound concentration was calculated based on the signals from the HPE and ZPE control wells contained in each assay plate and the fluorescence signals from individual compound wells. The inhibition rate in the ZPE control wells containing the enzyme and substrate was 0%, and the inhibition rate in the HPE control wells only containing the substrate was […]. By testing the compound in terms of numeric concentration and inhibition percentage, the compound concentration required for […] inhibition (IC50) was determined using a four-parameter logarithmic dose-response equation. The endpoint value (IC50) of the reference compound was evaluated in each experiment as a quality control measure. If the endpoint value was within three times the expected value, the experiment was considered acceptable.

Assay [2] deals with MIA PaCa-2. The assay is described as follows: Anti-proliferation 2D CTG test (MIA PaCa-2). The format is cell-based. Particulars: MIAPACA-2 cells, 500 cells/well, 5 days incubation with compound, CTG readout. As for the experimental part: as §1, §2, §3, §4, §5, §6
[3] abbreviates: Homo sapiens, MIA PaCa-2, 120 h.

One may read the IC50 as the concentration that inhibits the measured activity by half. Turning to “2^4-((S)-4-acryloyl-2-methylpiperazin-1-yl)-2^6,3^6-difluoro-7-hydroxy-1^2-isopropyl-2^1,2^2-dihydro-4-oxa-2(1,7)-pyrido[2,3-d]pyrimidina-1(3,4)-pyridina-3(1,2)-benzocycloheptane-2^2-one [Example 5]”, the IC50 is 19 nM in assay [1] and 20 nM in assay [2]. The like results for “11-((S)-4-acryloyl-2-methylpiperazin-1-yl)-2-((dimethylamino)methyl)-15,21-difluoro-7-isopropyl-3a,20a-dihydro-9H,20H-12,14-(epiethane[1,2]diylidene)benzo[b][1,3]dioxazolo[4,5-j]pyri do[3,4-h]pyrimido[6,1-f][1]oxa[5,7]diazacyclododecin-9-one [Example 64]” were, in that order, 3 nM and 1 nM. The corresponding values for `C=CC(=O)N1CCN(c2nc(=O)n3c4nc(c(F)cc24)-c2c(F)cccc2OCC(O)C(O)c2ccnc(C(C)C)c2-3)[C@@H](C)C1` (stereo partly drawn) [Example 1, 2^4-((S)-4-acryloyl-2-methylpiperazin-1-yl)-2^6,3^6-difluoro-6,7-dihydroxy-1^2-isopropyl-2^1,2^2-dihydro-4-oxa-2(1,7)-pyrido[2,3-d]pyrimidina-1(3,4)-pyridina-3(1,2)-benzocycloheptane-2^2-one] are 13 nM and 10 nM. The like results for `C=CC(=O)N1CCN(c2nc(=O)n3c4nc(c(F)cc24)-c2c(F)cccc2OCC(O)C(O)c2ccnc(C(C)C)c2-3)[C@@H](C)C1` (stereo partly drawn) [Example 1-R, (R)-2^4-((S)-4-acryloyl-2-methylpiperazin-1-yl)-2^6,3^6-difluoro-6,7-dihydroxy-1^2-isopropyl-2^1,2^2-dihydro-4-oxa-2(1,7)-pyrido[2,3-d]pyrimidina-1(3,4)-pyridina-3(1,2)-benzocycloheptane-2^2-one] were, in that order, 9 nM and 12 nM. Regarding `C=CC(=O)N1CCN(c2nc(=O)n3c4nc(c(F)cc24)-c2c(F)cccc2OCC(O)C(O)c2ccnc(C(C)C)c2-3)[C@@H](C)C1` (stereo partly drawn) [Example 1-S, (S)-2^4-((S)-4-acryloyl-2-methylpiperazin-1-yl)-2^6,3^6-difluoro-6,7-dihydroxy-1^2-isopropyl-2^1,2^2-dihydro-4-oxa-2(1,7)-pyrido[2,3-d]pyrimidina-1(3,4)-pyridina-3(1,2)-benzocycloheptane-2^2-one], the IC50 turned out to be 931 nM in assay [1] and 100 nM in assay [2]. As for `C=CC(=O)N1C[C@H](C)N(c2nc(=O)n3c4nc(c(F)cc24)-c2c(F)cccc2OCC(O)C(O)c2ccnc(C(C)C)c2-3)C[C@H]1C` (stereo partly drawn) [Example 2, (R)-2^4-((2S,5R)-4-acryloyl-2,5-dimethylpiperazin-1-yl)-2^6,3^6-difluoro-6,7-dihydroxy-1^2-isopropyl-2^1,2^2-dihydro-4-oxa-2(1,7)-pyrido[2,3-d]pyrimidina-1(3,4)-pyridina-3(1,2)-benzocycloheptane-2^2-one], the IC50 is 2 nM in assay [1] and 1 nM in assay [2]. The like results for `C=CC(=O)N1C[C@H](C)N(c2nc(=O)n3c4nc(c(F)cc24)-c2c(F)cccc2OCC(O)C(O)c2ccnc(C(C)C)c2-3)C[C@H]1C` (stereo partly drawn) [Example 3, (S)-2^4-((2S,5R)-4-acryloyl-2,5-dimethylpiperazin-1-yl)-2^6,3^6-difluoro-6,7-dihydroxy-1^2-isopropyl-2^1,2^2-dihydro-4-oxa-2(1,7)-pyrido[2,3-d]pyrimidina-1(3,4)-pyridina-3(1,2)-benzocycloheptane-2^2-one] were, in that order, 1250 nM and 400 nM. Take `C=CC(=O)N1CCN(c2nc(=O)n3c4nc(c(F)cc24)-c2c(F)cccc2OCC(O)C(=O)c2ccnc(C(C)C)c2-3)[C@@H](C)C1` (stereo partly drawn) [Example 4, 2^4-((S)-4-acryloyl-2-methylpiperazin-1-yl)-2^6,3^6-difluoro-6-hydroxy-1^2-isopropyl-2^1,2^2-dihydro-4-oxa-2(1,7)-pyrido[2,3-d]primidina-1(3,4)-pyridina-3(1,2)-benzocycloheptane-2^2,7-dione]: the IC50 in assay [1] (Homo sapiens, NCI-H358, 120 h) came out at 73 nM; in assay [2] (setting [3]) it was 83 nM. The corresponding values for `C=CC(=O)N1CCN(c2nc(=O)n3c4nc(c(F)cc24)-c2c(F)cccc2OCC(O)C(OC(=O)CC)c2ccnc(C(C)C)c2-3)[C@@H](C)C1` (stereo partly drawn) [Example 6, 2^4-((S)-4-acryloyl-2-methylpiperazin-1-yl)-2^6,3^6-difluoro-6-hydroxy-1^2-isopropyl-2^2-oxo-2^1,2^2-dihydro-4-oxa-2(1,7)-pyrido[2,3-d]pyrimidina-1(3,4)-pyridina-3(1,2)-benzocycloheptane-7-yl propionate] are 10 nM and 10 nM. Turning to `C=CC(=O)N1CCN(c2nc(=O)n3c4nc(c(F)cc24)-c2c(F)cccc2OCC(O)C(OC(C)=O)c2ccnc(C(C)C)c2-3)[C@@H](C)C1` (stereo partly drawn) [Example 7, 2^4-((S)-4-acryloyl-2-methylpiperazin-1-yl)-2^6,3^6-difluoro-6-hydroxy-1^2-isopropyl-2^2-oxo-2^1,2^2-dihydro-4-oxa-2(1,7)-pyrido[2,3-d]pyrimidina-1(3,4)-pyridina-3(1,2)-benzocycloheptane-7-yl acetate], the IC50 in assay [1] (Homo sapiens, NCI-H358, 120 h) was found to be 15 nM; in assay [2] (setting [3]) it was 10 nM. The corresponding values for `C=CC(=O)N1C[C@H](C)N(c2nc(=O)n3c4nc(c(F)cc24)-c2c(F)cccc2OCC(O)C(OC(C)=O)c2ccnc(C(C)C)c2-3)C[C@H]1C` (stereo partly drawn) [Example 8, 2^4-((2S,5R)-4-acryloyl-2,5-dimethylpiperazin-1-yl)-2^6,3^6-difluoro-6-hydroxy-1^2-isopropyl-2^2-oxo-2^1,2^2-dihydro-4-oxa-2(1,7)-pyrido[2,3-d]pyrimidina-1(3,4)-pyridina-3(1,2)-benzocycloheptane-7-yl acetate] are 9 nM and 3 nM. `C=CC(=O)N1CCN(c2nc(=O)n3c4nc(c(F)cc24)-c2c(F)cccc2OCC(O)C(OC(=O)C(C)C)c2ccnc(C(C)C)c2-3)[C@@H](C)C1` (stereo partly drawn) [Example 9, 2^4-((S)-4-acryloyl-2-methylpiperazin-1-yl)-2^6,3^6-difluoro-6-hydroxy-1^2-isopropyl-2^2-oxo-2^1,2^2-dihydro-4-oxa-2(1,7)-pyrido[2,3-d]pyrimidina-1(3,4)-pyridina-3(1,2)-benzocycloheptane-7-yl isobutyrate]: the IC50 in assay [1] (Homo sapiens, NCI-H358, 120 h) was 21 nM; in assay [2] (setting [3]), 13 nM. For `C=CC(=O)N1CCN(c2nc(=O)n3c4nc(c(F)cc24)-c2c(ccc(Cl)c2F)OCC(O)C(OCC)c2ccnc(C(C)C)c2-3)[C@@H](C)C1` (stereo partly drawn) [Example 73, (S)-2^4-((S)-4-acryloyl-2-methylpiperazin-1-yl)-3^5-chloro-7-ethoxy-2^6,3^6-difluoro-6-hydroxy-1^2-isopropyl-2^1,2^2-dihydro-4-oxa-2(1,7)-pyrido[2,3-d]pyrimidina-1(3,4)-pyridina-3(1,2)-benzocycloheptane-2^2-one], in assay [1], the IC50 was found to be 668 nM.

Take `C=CC(=O)N1C[C@H](C)N(c2nc(=O)n3c4nc(c(F)cc24)-c2c(ccc(Cl)c2F)OCC(O)C(OCC)c2ccnc(C(C)C)c2-3)C[C@H]1C` (stereo partly drawn) [Example 77, (S)-(S)-2^4-((2S,5R)-4-acryloyl-2,5-dimethylpiperazin-1-yl)-3^5-chloro-7-ethoxy-2^6,3^6-difluoro-6-hydroxy-1^2-isopropyl-2^1,2^2-dihydro-4-oxa-2(1,7)-pyrido[2,3-d]pyrimidina-1(3,4)-pyridina-3(1,2)-benzocycloheptane-2^2-one]: in assay [1], the IC50 was determined as 523 nM.
